Experimental data as given in ChEMBL document CHEMBL3044768, “Chemistry, toxicity and antifeedant activity of the resin of Flourensia thurifera” (1997).
≈ marks a conversion by molar mass, not a printed value.

How the values were obtained:
Artemia salina = test: Toxicity against Artemia salina (brine shrimp) after 24 hr; assay type: functional
Spodoptera littoralis = test: Antifeedant activity against fifth instar larvae of Spodoptera littoralis fed on compound-treated lettuce leaf at 10 ug/cm'2 by leaf-disk method; assay type: functional; parameters: unit not given here

SMILES | LC50 (Artemia salina) | FR50 (Spodoptera littoralis)
COC(=O)/C=C/c1ccc(OC(C)=O)c(C/C=C(\C)COC(C)=O)c1 | 39.8 µg/mL (≈ 115 µM) | –
COc1cc2ccc(=O)oc2c(O)c1OCC=C(C)C [CAPENSIN] | 52.5 µg/mL (≈ 190 µM) | 1.04
CC(=O)c1cc2c(cc1O)OC(C)(C)C=C2 [DEMETHYLENCECALIN] | 17.6 µg/mL (≈ 80.6 µM) | 0.4
CC(C)=CCc1cc(/C=C/C(=O)O)ccc1O [DRUPANIN] | 104 µg/mL (≈ 449 µM) | 78
COc1cc2c(cc1C(C)=O)C=CC(C)(C)O2 [ENCECALIN] | 0.9 µg/mL (≈ 3.87 µM) | 0.08
C=C(C)c1cc2cc(C(C)=O)c(O)cc2o1 [EUPARIN] | 58.9 µg/mL (≈ 272 µM) | 0.42
COc1cc2ccc(=O)oc2cc1OCC=C(C)C [PRENYLETIN 6-METHYL ETHER] | 17.6 µg/mL (≈ 67.6 µM) | 0.43
CC(C)=CCOc1cc2oc(=O)ccc2cc1O [PRENYLETIN] | 3.8 µg/mL (≈ 15.4 µM) | 1.06
COc1cc(O)c2c(=O)c(O)c(-c3ccc(O)c(O)c3)oc2c1 [RHAMNETIN] | – | 71
